Laboratory results as given in patent US7264832B2, “Cyclooxygenase-2 inhibitory withanolide compositions and method” (Board of Trustees of Michigan State University, priority 2002, dated 2007).

Assays:
[1] = Antioxidant activity: inhibition of Fe2+-initiated lipid peroxidation in large unilamellar vesicles; details: 100 ppm (100 μg/ml), at 20 min, relative to DMSO control
Protocol: The ability of withanolides to inhibit lipid peroxidation in a model system was used to determine whether they could act as antioxidants. The assay was conducted by using large unilamellar vesicles and peroxidation was initiated by adding Fe^2+.
Antioxidant activity. […] The percentage of inhibition was calculated with respect to DMSO control. All compounds were tested at 100 μg/ml and the positive controls BHA, BHT and TBHQ were tested at 10 μM.

[2] = molecular target: T1, COX-2 enzyme (human PGHS-2) isolated from insect cells (Homo sapiens, UniProt P35354); test: Cyclooxygenase enzyme inhibitory assay, COX-2 (initial rate of O2 uptake)
T1 sequence (P35354 18-604): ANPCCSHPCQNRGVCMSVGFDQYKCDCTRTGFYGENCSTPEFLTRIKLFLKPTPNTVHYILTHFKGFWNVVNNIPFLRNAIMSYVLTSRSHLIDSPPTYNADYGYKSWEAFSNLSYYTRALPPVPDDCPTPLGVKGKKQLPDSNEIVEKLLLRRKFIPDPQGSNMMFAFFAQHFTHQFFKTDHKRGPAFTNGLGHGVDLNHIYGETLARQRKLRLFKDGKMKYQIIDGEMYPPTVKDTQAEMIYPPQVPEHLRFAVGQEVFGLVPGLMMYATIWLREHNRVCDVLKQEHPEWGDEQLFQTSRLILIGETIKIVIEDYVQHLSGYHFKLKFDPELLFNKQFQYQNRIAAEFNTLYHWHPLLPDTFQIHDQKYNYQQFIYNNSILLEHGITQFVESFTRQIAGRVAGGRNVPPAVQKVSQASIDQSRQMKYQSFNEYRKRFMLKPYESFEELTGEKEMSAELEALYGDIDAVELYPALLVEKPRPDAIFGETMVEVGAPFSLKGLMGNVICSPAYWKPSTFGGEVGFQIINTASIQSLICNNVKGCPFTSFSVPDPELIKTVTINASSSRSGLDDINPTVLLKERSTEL
Protocol: (§1) The withanolides isolated from the leaves were evaluated for their cyclooxygenase (COX) enzyme inhibitory activity using prostaglandin endoperoxide synthase isozymes-1 (COX-1) and PGHS-2 (COX-2).
(§2) Cyclooxygenase enzyme inhibitory assay. COX-1 enzyme was prepared from ram seminal vesicles and COX-2 enzyme was isolated from insect cells cloned with human PGHS-2 enzyme. The inhibitory effects of test compounds on COX-1 and -2 were measured by monitoring the initial rate of 02 uptake using an oxygen electrode (Instech Laboratories, Plymouth Meeting, Pa.) attached to a biological oxygen monitor (Yellow Spring Instrument, Inc., Yellow Spring, Ohio) at 37° C. The enzymes were diluted (1:1) with Tris buffer (pH 7, 10-15 μl) and the test compounds (100 μg/ml, 10 μl) dissolved in DMSO were added to the assay mixture composed of 3 ml of 0.1 M Tris HCl, pH 7, 1 mmol phenol and 85 μg of hemoglobin. […] The instantaneous inhibition was measured by using Quick Log Data acquisition and control computer software (Strawberry Tree Inc., Sunnyvale, Calif., USA).

[3] = molecular target: T2, COX-1 enzyme (prostaglandin endoperoxide synthase isozyme-1) prepared from ram seminal vesicles (Ovis aries, UniProt P05979); test: Cyclooxygenase enzyme inhibitory assay, COX-1 (initial rate of O2 uptake)
T2 sequence (P05979 25-600): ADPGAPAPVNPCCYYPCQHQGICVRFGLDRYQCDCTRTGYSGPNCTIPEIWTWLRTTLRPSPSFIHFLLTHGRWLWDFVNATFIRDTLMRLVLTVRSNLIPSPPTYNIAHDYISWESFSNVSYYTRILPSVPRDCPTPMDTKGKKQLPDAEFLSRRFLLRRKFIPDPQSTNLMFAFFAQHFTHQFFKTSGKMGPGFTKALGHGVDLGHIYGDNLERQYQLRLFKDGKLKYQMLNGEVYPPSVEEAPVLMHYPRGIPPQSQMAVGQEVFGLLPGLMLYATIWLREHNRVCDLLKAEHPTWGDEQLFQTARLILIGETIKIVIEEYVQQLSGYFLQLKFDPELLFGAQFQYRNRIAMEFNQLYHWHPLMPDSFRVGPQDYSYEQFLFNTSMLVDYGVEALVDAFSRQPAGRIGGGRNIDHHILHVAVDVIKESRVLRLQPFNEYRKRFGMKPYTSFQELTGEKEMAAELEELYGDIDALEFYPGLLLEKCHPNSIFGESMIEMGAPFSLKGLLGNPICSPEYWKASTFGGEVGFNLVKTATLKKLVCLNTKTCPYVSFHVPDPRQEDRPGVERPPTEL
Protocol: as §1, §2

COX-2 enzyme inhibition ([2]; 50 μg/ml)	Molecule	inhibition of lipid peroxidation [1]	COX-2 enzyme inhibition ([2]; 100 μg/ml)	other results
5%	4,16-dihydroxy-5β,6β-epoxyphysagulin D [Compound 4]	40%		
15%	4-(1-hydroxy-2,2-dimethylcyclo-propanone)-2,3-dihydrowithaferin A [Compound 5]	did not show activity		
	23,24-dihydrowithaferin A [Compound 9]	did not show activity	neither COX-1 nor COX-2 activities	COX-1 activity ([3]; 100 μg/ml): neither COX-1 nor COX-2 activities
9%	27-O-β-D-glucopyranosyl physagulin D [Compound 2]			
	CC(=O)Oc1ccccc1C(=O)O [Aspirin, reference compound]			COX-1 inhibition ([3]; tested at 180 μg/ml): 61%; inhibition at 180 µg/mL ([2]; read-out: COX-2 inhibition): 7%
	CC1=C(CO)C(=O)O[C@@H]([C@@H](C)[C@H]2CC[C@H]3[C@@H]4C[C@H]5O[C@]56[C@@H](O)C=CC(=O)[C@]6(C)[C@H]4CC[C@]23C)C1 [Compound 6, withaferin A]	did not show activity	39%	
	CC1=C(CO)C(=O)OC(C(C)C2CCC3C4CC5OC56C(O)CCC(=O)C6(C)C4CCC23C)C1 (centres unmarked) [Compound 7, 2,3-dihydrowithaferin A]	5%	27%	
	CC1=C(CO)C(=O)O[C@@H]([C@@H](C)[C@H]2CC[C@H]3[C@@H]4C[C@H]5O[C@]56[C@@H](O)[C@@H](O)CC(=O)[C@]6(C)[C@H]4CC[C@]23C)C1 [Compound 8, viscosalactone B]	did not show activity	35%	
	CC1=C(CO[C@@H]2O[C@H](CO)[C@@H](O)[C@H](O)[C@H]2O)C(=O)O[C@@H]([C@@H](C)[C@H]2CC[C@H]3[C@@H]4C[C@H]5O[C@]56[C@@H](O)C=CC(=O)[C@]6(C)[C@H]4CC[C@]23C)C1 [Compound 10, sitoindoside IX]	44%		inhibition at 100 µg/mL ([2]; read-out: COX-2 enzyme inhibition): 13%
	CC1=C(CO)C(=O)O[C@@H]([C@@H](C)[C@H]2CC[C@H]3[C@@H]4CC=C5C[C@@H](O[C@@H]6O[C@H](CO)[C@@H](O)[C@H](O)[C@H]6O)C[C@H](O)[C@]5(C)[C@H]4CC[C@]23C)C1 [Compound 11, physagulin D]	55%	14%	
	CC1=C(CO)C(=O)O[C@@H]([C@@H](C)[C@H]2CC[C@H]3[C@@H]4CC=C5C[C@@H](O[C@@H]6O[C@H](CO[C@@H]7O[C@H](CO)[C@@H](O)[C@H](O)[C@H]7O)[C@@H](O)[C@H](O)[C@H]6O)C[C@H](O)[C@]5(C)[C@H]4CC[C@]23C)C1 [Compound 12, withanolide IV]	did not show activity	23%	
	COc1ccc2cc([C@H](C)C(=O)O)ccc2c1 [naproxen, reference compound]			inhibition at 2.5 µg/mL ([3]; read-out: COX-1 inhibition): 79%; inhibition at 2.5 µg/mL ([2]; read-out: COX-2 inhibition): 95%
15%	physagulin D (1→6)-β-D-glucopyranosyl-(1→4)-β-D-glucopyranoside [Compound 1]			

Molecule	COX-2 enzyme inhibition ([2]; 50 μg/ml)	inhibition of lipid peroxidation [1]	COX-2 enzyme inhibition ([2]; 100 μg/ml)	other results
CC1=C(CO[C@@H]2O[C@H](CO)[C@@H](O)[C@H](O)[C@H]2O)C(=O)OC([C@@H](C)[C@H]2CC[C@H]3[C@@H]4C[C@H]5O[C@]56[C@@H](O)[C@@H](O)CC(=O)[C@]6(C)[C@H]4CC[C@]23C)C1 (stereo partly drawn) [Compound 3, 27-O-β-D-glucopyranosyl viscosalactone B]	7%			
